From publication PMC11788587, “Validating Low‐Dose Iohexol as a Marker for Glomerular Filtration Rate by In Vitro and In Vivo Studies” (Clinical and Translational Science, 2025)

Assays:
hOATP1B3 = molecular target: T1, hOATP1B3 (Homo sapiens, UniProt Q9NPD5); assay: Inhibition of hOATP1B3-mediated 3H-BSP uptake, stably transfected 293 cells; assay type: cell-based; details: substrate 0.02 μM 3H-BSP, median (95% CI)
T1 construct: expressed in transfected cells; host or cells: 293 cells (control: empty vector)
T1 sequence (Q9NPD5 1-702): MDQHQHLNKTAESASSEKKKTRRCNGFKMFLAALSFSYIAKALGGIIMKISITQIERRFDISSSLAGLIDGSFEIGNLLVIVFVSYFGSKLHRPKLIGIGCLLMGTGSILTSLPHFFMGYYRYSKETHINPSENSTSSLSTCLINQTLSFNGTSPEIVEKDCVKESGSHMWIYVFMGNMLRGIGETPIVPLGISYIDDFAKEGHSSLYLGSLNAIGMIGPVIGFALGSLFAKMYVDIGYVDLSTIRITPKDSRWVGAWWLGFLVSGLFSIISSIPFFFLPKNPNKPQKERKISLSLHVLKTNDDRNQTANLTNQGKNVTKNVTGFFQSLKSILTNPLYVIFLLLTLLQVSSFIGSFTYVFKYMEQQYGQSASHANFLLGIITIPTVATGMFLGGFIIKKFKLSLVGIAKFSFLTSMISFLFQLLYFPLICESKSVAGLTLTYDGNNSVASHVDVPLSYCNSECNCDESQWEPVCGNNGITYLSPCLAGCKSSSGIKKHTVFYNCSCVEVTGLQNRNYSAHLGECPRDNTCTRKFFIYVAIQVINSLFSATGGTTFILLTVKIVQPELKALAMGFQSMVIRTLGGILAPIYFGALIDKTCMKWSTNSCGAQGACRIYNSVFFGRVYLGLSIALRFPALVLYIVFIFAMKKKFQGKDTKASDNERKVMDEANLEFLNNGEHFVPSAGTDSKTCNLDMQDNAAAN
Excerpt: We characterized the inhibitory potential of iohexol on major drug transporters recommended by regulatory agencies, which were previously assessed in a clinical transporter phenotyping cocktail study. These transporters include hOAT1, hOAT3, hOCT1, hOCT2, hMATE1, hMATE2K, human organic anion transporter polypeptides (hOATP)1B1, hOATP1B3, and human multidrug resistance protein (hMDR)1. Additionally, we investigated whether iohexol is a substrate for any of the renal transporters among these, including hOAT1/3, hOCT1/2, and hMATE1/2K. Cell‐based uptake assays were used to assess the activities of hOAT1/3, hOCT1/2, hMATE1/2K, and hOATP1B1/1B3. Inside‐out membrane vesicle uptake assays were used to evaluate the activity of hMDR1.
To determine the maximal inhibitory potential of iohexol, intracellular accumulation of a standard substrate was measured with and without the clinically relevant highest concentrations of iohexol. Control inhibitors were tested in each experiment.
In all subsequent in vitro studies, control experiments were conducted to validate the results. […] Each condition, including cells or vesicles with the transporter and their respective controls, was analyzed in at least three replicates. […]
Uptake assays were carried out with stably transfected 293 cells expressing hOATP1B1 or hOATP1B3, as well as cells containing an empty vector, using the method described by Hsin CH, et al..^1 For the inhibition assays, cells were incubated with the radiolabeled standard substrates specific to each transporter: 0.01 μM ^3H-estrone sulfate for hOATP1B1, and 0.02 μM ^3H-bromosulphophthalein (BSP) for hOATP1B3. […] The accumulation of radio-labelled probe substrates (^3H) in the cell lysate is determined using a Tri-Carb 2810 liquid scintillation counter (PerkinElmer, Waltham, MA, USA) as described previously.^1 Cellular protein amount was determined in parallel from 6 paired wells per cell line and experimental day, using the Bradford method.^2 The 1X lysis buffer (5X lysis buffer from Promega, diluted 1+4 [v/v] in ddH2O) was used as the lysis buffer. […]

[1] = Clinical trial in healthy volunteers, adverse events; assay type: in vivo, human; details: 12 healthy subjects, single i.v. doses 259 mg and 3235 mg
Description: The trial had two separate objectives, that is, (i) to assess dose linearity of iohexol pharmacokinetics for a lower dose (reported here) and (ii) to improve the assessment of creatinine volume of distribution by oral administration of creatinine in beef meat (will be reported separately). Building on the PK findings from a 3235 mg iohexol injection, we determined that the current quantification method is sufficiently sensitive to measure iohexol plasma concentrations corresponding to doses over 10 times lower, up to at least 20 h postadministration. Therefore, a 259 mg iohexol dose was selected for this study. […] Each participant was randomly assigned to one of six sequences, receiving iohexol intravenously at different single doses on separate occasions: (1) 259 mg iohexol without beef ingestion (defined as “fasting,” “test”); (2) 3235 mg iohexol fasting (“reference”); and (3) 3235 mg iohexol with beef ingestion (not reported here). The washout interval between administrations was 7 to 14 days. Adverse events were surveyed until the completion of the study.
Adverse events were monitored at multiple time points: within 1 hour before the administration of iohexol, and then at 10 minutes, 30 minutes, 1 hour, and 2 hours post-dose, as well as at the end of hospitalization for each period and during the end-of-study evaluation. Vital signs were recorded at the same time points as adverse events. Overall health was reassessed at the end of the study.

Inhibitory effect (% reduction of specific activity) (hOATP1B3; 20 mM iohexol): no notable inhibitory effects | inhibition at 7 min, 2 mM (hOATP1B3; human, stably transfected 293 cells expressing hOATP1B3, probe 3H-bromosulphophthalein (BSP), 2 mM iohexol, read-out: Inhibitory effect (% reduction of specific activity)): -2.5% | inhibition at 7 min, 20 mM (hOATP1B3; human, stably transfected 293 cells expressing hOATP1B3, probe 3H-bromosulphophthalein (BSP), 20 mM iohexol, read-out: Inhibitory effect (% reduction of specific activity)): -21%
Compound: CC(=O)N(CC(O)CO)c1c(I)c(C(=O)NCC(O)CO)c(I)c(C(=O)NCC(O)CO)c1I (stereo not drawn) [iohexol]
Adverse events related to iohexol [1]: None of these were related to iohexol | Number of adverse events reported [1]: 9 | Subjects reporting adverse events [1]: 7 of 12
